Measurements: patent publication US7785566B2, “Pharmaceutical compounds” (GE Healthcare, Inc., priority 2003, dated 2010)

System: ventricular extrasystoles after LAD artery occlusion
Assay: Antiarrythmic effect in a post myocardial infarction (MI) pig model (LAD ligation)
Assay type: in vivo
Source text: The pharmaceutical cPn216-[…]OH (X) was examined according to the following procedure:
A pig was anaestetised and put on artificial overpressure ventilation. Access to the heart was obtained by a midline sternotomy and removal of the anterior pericardium. The LAD artery was occluded by ligation above the 2nd branch and one of the collaterals was occluded as well. This caused development of frequent ventricular extrasystoles, known to proceed into ventricular tachycardia and fibrillation within minutes from previous experiments with the same type of preparation. […] An initial rise in mean blood pressure was noticed. Ventricular extrasystoles reappeared gradually after about 15 minutes and a new injection of 0.5 mg of the compound of formula (X) was given. […] The pig was then given a lethal dose of potassium chloride to terminate the experiment.
A similar set of observations was made in a second pig experiment.

[1] = pig, hour following second 0.5 mg injection

CCC(C)[C@H](NC(=O)[C@@H]1CCCN1C(=O)[C@H](Cc1cnc[nH]1)NC(=O)[C@@H](NC(=O)[C@H](Cc1ccc(O)cc1)NC(=O)[C@@H](NC(=O)[C@H](CCCNC(=N)N)NC(=O)CNCCC(CCNC(C)(C)/C(C)=N\O)CCNC(C)(C)/C(C)=N\O)C(C)C)C(C)CC)C(=O)O (some centres unmarked) [(X)]
Duration of QRS complexes (ECG before and after first injection) (pig, ECG recordings before and after the first injection): shortening
Heart rhythm after first intravenous injection (pig, LAD occluded, frequent ventricular extrasystoles, i.v. 0,5 mg, within few minutes): Complete stabilisation of the condition with return to sinus rhythm
Time until ventricular extrasystoles reappeared (pig, after first i.v. injection of 0,5 mg): about 15 minutes
Blood pressure during the following hour [1]: slightly reduced but adequate constant
Heart rhythm during the following hour [1]: stable sinus rhythm
Mean blood pressure after first injection (pig, i.v. 0,5 mg, first injection): initial rise
Heart rhythm after second injection (pig, new injection of 0.5 mg after reappearance of extrasystoles): stabilised with regular sinus rhythm
Overall anti-arrythmic activity in this preparation (post-MI pig preparation): act as an anti-arrythmic drug
